According to patent publication US20040224014A1, “Non-hygroscopic pharmaceutical compositions containing non-hydrated quinoline carboxylic acids” (The Jordanian pharmaceutical manufacturing Co., priority 2003, published 2004):

Assay: Water uptake of norfloxacin and its formulations (FIG. 1)
Type: physicochemical
Details: depending on manufacturing procedure (wet or dry granulation) and storage temperature and humidity
Text: The water uptake for norfloxacin and its formulations may reach up to 30% and more depending on the manufacturing procedures (wet or dry granulation), and storage conditions of temperature and humidity (see FIG. 1).

Compound: CCn1cc(C(=O)O)c(=O)c2cc(F)c(N3CCNCC3)cc21 [norfloxacin]
- water uptake: ~30%
